ChEMBL document CHEMBL4715750, “Synthesis and in vitro, ex-vivo and in vivo activity of hybrid compounds linking a potent ROS and RNS scavenger activity with diverse substrates addressed to pass across the blood-brain barrier” (Eur J Med Chem, 2016)

What was measured:
[1] = Cytotoxicity against human SH-SY5Y cells assessed as cell viability at 3.1 uM measured after 2 hrs by MTT assay relative to control; assay type: cell-based; conditions: read-out: Activity
[2] = Cytotoxicity against human SH-SY5Y cells assessed as cell viability at 0.8 uM measured after 2 hrs by MTT assay relative to control; assay type: cell-based; conditions: read-out: Activity
[3] = Cytotoxicity against human SH-SY5Y cells assessed as cell viability at 6.3 uM measured after 24 hrs by MTT assay relative to control; assay type: cell-based; conditions: read-out: Activity
[4] = Cytotoxicity against human SH-SY5Y cells assessed as cell viability at 1.6 uM measured after 24 hrs by MTT assay relative to control; assay type: cell-based; conditions: read-out: Activity
[5] = Cytotoxicity against human SH-SY5Y cells assessed as cell viability at 25 uM measured after 2 hrs by MTT assay relative to control; assay type: cell-based; conditions: read-out: Activity
[6] = Permeability of the compound at pH 7.4 by PAMPA-BBB assay; assay type: ADME; conditions: read-out: permeability
[7] = Cytotoxicity against human SH-SY5Y cells assessed as cell viability at 6.3 uM measured after 2 hrs by MTT assay relative to control; assay type: cell-based; conditions: read-out: Activity
[8] = Cytotoxicity against human SH-SY5Y cells assessed as cell viability at 0.8 uM measured after 24 hrs by MTT assay relative to control; assay type: cell-based; conditions: read-out: Activity
[9] = Cytotoxicity against human SH-SY5Y cells assessed as cell viability at 12.5 uM measured after 2 hrs by MTT assay relative to control; assay type: cell-based; conditions: read-out: Activity
[10] = Cytotoxicity against human SH-SY5Y cells assessed as cell viability at 12.5 uM measured after 24 hrs by MTT assay relative to control; assay type: cell-based; conditions: read-out: Activity
[11] = Cytotoxicity against human SH-SY5Y cells assessed as cell viability at 100 uM measured after 24 hrs by MTT assay relative to control; assay type: cell-based; conditions: read-out: Activity
[12] = Cytotoxicity against human SH-SY5Y cells assessed as cell viability at 50 uM measured after 2 hrs by MTT assay relative to control; assay type: cell-based; conditions: read-out: Activity
[13] = Cytotoxicity against human SH-SY5Y cells assessed as cell viability at 3.1 uM measured after 24 hrs by MTT assay relative to control; assay type: cell-based; conditions: read-out: Activity
[14] = Cytotoxicity against human SH-SY5Y cells assessed as cell viability at 1.6 uM measured after 2 hrs by MTT assay relative to control; assay type: cell-based; conditions: read-out: Activity
[15] = Cytotoxicity against human SH-SY5Y cells assessed as cell viability at 100 uM measured after 2 hrs by MTT assay relative to control; assay type: cell-based; conditions: read-out: Activity
[16] = Cytotoxicity against human SH-SY5Y cells assessed as cell viability at 50 uM measured after 24 hrs by MTT assay relative to control; assay type: cell-based; conditions: read-out: Activity
[17] = Antioxidant activity assessed as DPPH radical scavenging activity incubated for 60 mins in absence of light; assay type: functional
[18] = Cytotoxicity against human SH-SY5Y cells assessed as cell viability at 25 uM measured after 24 hrs by MTT assay relative to control; assay type: cell-based; conditions: read-out: Activity
[19] = tested on: SH-SY5Y; experiment: Antioxidant activity in human SH-SY5Y cells assessed as inhibition of H2O2-induced DCFH oxidation measured after 1 hr by DCFH-DA dye based fluorescence assay; assay type: functional, cell-based

| Compound | viability at 2 h, 3.1 µM [1] | viability at 2 h, 0.8 µM [2] | viability at 24 h, 6.3 µM [3] | viability at 24 h, 1.6 µM [4] | viability at 2 h, 25 µM [5] | Papp [6] | viability at 2 h, 6.3 µM [7] | viability at 24 h, 0.8 µM [8] | viability at 2 h, 12.5 µM [9] | viability at 24 h, 12.5 µM [10] | viability at 24 h, 100 µM [11] | viability at 2 h, 50 µM [12] | viability at 24 h, 3.1 µM [13] | viability at 2 h, 1.6 µM [14] | viability at 2 h, 100 µM [15] | viability at 24 h, 50 µM [16] | IC50 [17] | viability at 24 h, 25 µM [18] | Activity [19] | IC50 [19] |
| --- | --- | --- | --- | --- | --- | --- | --- | --- | --- | --- | --- | --- | --- | --- | --- | --- | --- | --- | --- | --- |
| COc1cc2c(cc1O)CCC(C)(CC(=O)N1CCC[C@H]1C(=O)O)O2 (some centres not stated) | 100% | 100% | 100% | 93.2% | 100% | 0.04 ×10⁻⁶ cm/s | 98.8% | 92.8% | 100% | 100% | 79.6% | 100% | 100% | 99.2% | 78.8% | 100% | 19.1 µM | 95.8% | Dose-dependent effect | 41.4 µM |
| Cc1c(C)c2c(c(C)c1O)CCC(C)(C(=O)O)O2 (configuration not stated) [TROLOX] | 97.6% | 93.2% | 83.7% | 87.6% | 99% | 1.04 ×10⁻⁶ cm/s | 97.4% | 84.6% | 95% | 82.8% | 68% | 92.4% | 79.6% | 88.5% | 86.5% | 81.9% | 15.7 µM | 86.4% | Dose-dependent effect | 82.3 µM |
| COc1cc2c(cc1O)CCC(C)(CC(=O)O)O2 (configuration not stated) | 100% | 100% | 100% | 100% | 100% |  | 100% | 90.2% | 100% | 92% | 53.1% | 100% | 100% | 100% | 79.9% | 61% | 8.4 µM | 92.5% | Dose-dependent effect | 32.3 µM |
| COc1cc2c(cc1O)CCC(C)(CC(=O)N[C@@H](CCC(N)=O)C(=O)O)O2 (some centres not stated) | 100% | 92.8% | 84% | 89.4% | 100% |  | 100% | 92.8% | 100% | 84.8% | 58.2% | 100% | 100% | 97.1% | 86.5% | 83.2% | 15 µM | 91.8% | Dose-dependent effect | 78 µM |
| COc1cc2c(cc1O)CCC(C)(CCNC(=O)/C=C(C)/C=C/C=C(C)/C=C/C1=C(C)CCCC1(C)C)O2 (configuration not stated) | 97.3% | 87.4% | 100% | 99.1% | 100% |  | 90.5% | 89.6% | 100% | 100% | 47.9% | 97.4% | 100% | 93.6% | 57.7% | 91.7% | 16.2 µM | 91.2% | Dose-dependent effect | > 300 µM |
